Results as given in US6476263B1, “Compounds for inhibiting β-amyloid peptide release and/or its synthesis” (Elan Pharmaceuticals, Inc., priority 1996, dated 2002).
Residues, ends and D or L forms follow the SMILES beside them.

Structure (SMILES)	melting point
COC(=O)C(NC(=O)[C@H](C)NC(=O)Cc1cc(F)cc(F)c1)c1cccc(C(F)(F)F)c1 (stereo partly drawn) [Example 183, Methyl N-[N-(3,5-Difluorophenylacetyl)-L-alaninyl]-2-amino-2-(3-trifluoromethylphenyl)acetate]	133 to 134 °C
C[C@H](NC(=O)Cc1cc(F)cc(F)c1)C(=O)N[C@@H](Cc1ccccc1)C(=O)OCCCBr [Example 38, N-[N-(3,5-Difluorophenylacetyl)-L-alaninyl]-L-phenylalanine 3-Bromopropyl Ester]	138 to 142 °C
C[C@H](NC(=O)Cc1cc(F)cc(F)c1)C(=O)N[C@@H](Cc1ccccc1)C(=O)OCc1ccccc1 [Example 37, N-[N-(3,5-Difluorophenylacetyl)-L-alaninyl]-L-phenylalanine Benzyl Ester]	170 to 171 °C
CCOC(=O)C(C)(NC(=O)[C@H](C)NC(=O)Cc1cc(F)cc(F)c1)c1ccccc1 (stereo partly drawn) [Example 123, Ethyl N-[N-(3,5-Difluorophenylacetyl)-L-alaninyl]-2-amino-2-phenylpropionate]	128 to 130 °C
CCOC(=O)C(NC(=O)[C@H](C)NC(=O)Cc1cc(F)cc(F)c1)C1CCCCC1 (stereo partly drawn) [Example 126, Ethyl N-[N-(3,5-Difluorophenylacetyl)-L-alaninyl]-2-amino-2-cyclohexylacetate]	146 to 150 °C
COC(=O)[C@H](Cc1ccc(O)cc1)NC(=O)[C@H](C)NC(=O)Cc1cc(F)cc(F)c1 [Example 15, N-[N-(3,5-Difluorophenylacetyl)-L-alaninyl]-L-tyrosine Methyl Ester]	85 to 88 °C
COC(=O)C(NC(=O)[C@H](C)NC(=O)Cc1cc(F)cc(F)c1)c1cccs1 (stereo partly drawn) [Example 176, Methyl N-[N-(3,5-Difluorophenylacetyl)-L-alaninyl]-2-amino-2-(2-thienyl)acetate]	161 to 162 °C
C[C@H](NC(=O)Cc1cc(F)cc(F)c1)C(=O)NCC(=O)OCCCc1ccccc1 [Example 46, N-[N-(3,5-Difluorophenylacetyl)-L-alaninyl]glycine 3-Phenylpropyl Ester]	137 °C
COC(=O)CNC(=O)[C@H](C)NC(=O)Cc1cc(F)cc(F)c1 [Example 28, N-[N-(3,5-Difluorophenylacetyl)-L-alaninyl]glycine Methyl Ester]	158 to 160 °C
NC(C(=O)NC(=O)C(NC(=O)Cc1cc(F)cc(F)c1)c1ccccc1)c1ccccc1 (mixture of isomers) [Example 248, N-[N-(3,5-Difluorophenylacetyl)-D,L-phenylglycinyl]-D,L-phenylglycinamide]	285.5 to 288.5 °C
CCCC[C@H](NC(=O)[C@H](C)NC(=O)Cc1cc(F)cc(F)c1)C(=O)O [Example 327, N-[N-(3,5-Difluorophenylacetyl)-L-alaninyl]-L-norleucine]	158.5 to 160.5 °C
C[C@H](NC(=O)Cc1cc(F)cc(F)c1)C(=O)NCC(=O)OCc1ccccc1 [Example 73, N-[N-(3,5-Difluorophenylacetyl)-L-alaninyl]glycine Benzyl Ester]	167.5 °C
COC(=O)C(NC(=O)[C@H](C)NC(=O)Cc1cc(F)cc(F)c1)c1ccc(OC)cc1 (stereo partly drawn) [Example 64, Methyl N-[N-(3,5-Difluorophenylacetyl)-L-alaninyl]-2-amino-2-(4-methoxyphenyl)acetate]	170 to 174 °C
CCOC(=O)C(NC(=O)[C@H](C)NC(=O)Cc1cc(F)cc(F)c1)c1cc2ccccc2s1 (stereo partly drawn) [Example 174, Ethyl N-[N-(3,5-Difluorophenylacetyl)-L-alaninyl]-2-amino-2-(benzothiophen-2-yl)acetate]	189 to 190 °C
COCC(NC(=O)[C@H](C)NC(=O)Cc1cc(F)cc(F)c1)C(=O)OC (stereo partly drawn) [Example 24, Methyl N-[N-(3,5-Difluorophenylacetyl)-L-alaninyl]-2-amino-3-methoxypropionate]	165 to 168 °C
COC(=O)C(NC(=O)[C@H](C)NC(=O)Cc1cc(F)cc(F)c1)c1cccc(OC)c1 (stereo partly drawn) [Example 63, Methyl N-[N-(3,5-Difluorophenylacetyl)-L-alaninyl]-2-amino-2-(3-methoxyphenyl)acetate]	163 to 170 °C
COC(=O)[C@H](Cc1cccs1)NC(=O)[C@H](C)NC(=O)Cc1cc(F)cc(F)c1 [Example 36, Methyl N-[N-(3,5-Difluorophenylacetyl)-L-alaninyl]-(S)-2-amino-3-(2-thienyl)propionate]	145 to 147 °C
CCOC(=O)CNC(=O)[C@H](C)NC(=O)Cc1cccc([N+](=O)[O-])c1 [Example 77, N-[N-(3-Nitrophenylacetyl)-L-alaninyl]glycine Ethyl Ester]	164 to 165 °C
CCOC(=O)C(NC(=O)[C@H](C)NC(=O)Cc1cc(F)cc(F)c1)c1ccncc1 (stereo partly drawn) [Example 66, Ethyl N-[N-(3,5-Difluorophenylacetyl)-L-alaninyl]-2-amino-2-(4-pyridyl)acetate]	175 to 181 °C
COC(=O)[C@@H](NC(=O)CC1CCCC[C@@H]1NC(=O)Cc1cc(F)cc(F)c1)c1ccccc1 (stereo partly drawn) [Example 225, N-[N-(3,5-Difluorophenylacetyl)-2-(S)-aminocyclohexylacetyl]-L-phenylglycine Methyl Ester]	234.4 °C
C[C@H](NC(=O)Cc1cc(F)cc(F)c1)C(=O)N[C@@H](C(=O)OC(C)(C)C)c1cccs1 [Example 179, tert-Butyl N-[N-(3,5-Difluorophenylacetyl)-L-alaninyl]-(S)-2-amino-2-(2-thienyl)acetate]	117 to 118 °C

Results, then the molecule that gave them:

melting point	Structure (SMILES)
142 to 146 °C	CC[C@H](C)[C@H](NC(=O)CC(C)C)C(=O)N[C@@H](C)C(=O)OCC(C)C [Example 82, N-[N-(Isovaleryl)-L-isoleucinyl]-L-alanine iso-butyl Ester]
152 to 153.5 °C	COC(=O)CNC(=O)[C@H](C)NC(=O)Cc1ccccc1 [Example 206, N-[N-(Phenylacetyl)-L-alaninyl]glycine Methyl Ester] (HELM PEPTIDE1{[O=C(Cc1ccccc1)[*:2]].A.G.[CO[*:1]]}$$$$V2.0)
202.5 °C	O=C(CC1CC1)N[C@H](C(=O)N[C@H](CO)c1ccccc1)c1ccccc1 [Example 246, N-[N-(Cyclopropaneacetyl)-L-phenylglycinyl]-L-phenylglycinol]
189.3 °C	COC(=O)[C@@H](NC(=O)[C@H](CCSC)NC(=O)Cc1cc(F)cc(F)c1)c1ccccc1 [Example 193, N-[N-(3,5-Difluorophenylacetyl)-L-methioninyl]-L-phenylglycine Methyl Ester]
142.3 °C	COC(=O)[C@@H](NC(=O)CNC(=O)Cc1cc(F)cc(F)c1)c1ccccc1 [Example 198, N-[N-(3,5-Difluorophenylacetyl)glycinyl]-L-phenylglycine Methyl Ester]
198 to 200 °C	COC(=O)[C@@H](NC(=O)[C@H](C)NC(=O)Cc1cc(F)cc(F)c1)c1ccccc1 [Example 111, N-[N-(3,5-Difluorophenylacetyl)-L-alaninyl]-L-phenylglycine Methyl Ester]
181 to 186 °C	CC(C)COC(=O)[C@H](C)NC(=O)[C@@H](NC(=O)CC(C)C)c1ccccc1 [Example 79, N-[N-(Isovaleryl)-L-phenylglycinyl]-L-alanine iso-butyl Ester]
154 to 158 °C	COC(=O)[C@H](Cc1ccccc1)NC(=O)[C@H](C)NC(=O)Cc1cccc([N+](=O)[O-])c1 [Example 75, N-[N-(3-Nitrophenylacetyl)-L-alaninyl]-L-phenylalanine Methyl Ester]
185 °C	CC(C)(C)OC(=O)[C@@H](NC(=O)[C@@H](NC(=O)Cc1cc(F)cc(F)c1)c1ccccc1)c1ccccc1 [Example 263, N-[N-(3,5-Difluorophenylacetyl)-L-phenylglycinyl]-L-phenylglycine tert-Butyl Ester]
178.4 °C	COC(=O)[C@@H](NC(=O)[C@H](CC(C)C)NC(=O)Cc1cc(F)cc(F)c1)c1ccccc1 [Example 196, N-[N-(3,5-Difluorophenylacetyl)-L-leucinyl]-L-phenylglycine Methyl Ester]
243 to 245 °C	COC(=O)[C@@H](NC(=O)[C@H](C)NC(=O)[C@H](C)NC(=O)Cc1cc(F)cc(F)c1)c1ccccc1 [Example 112, N-[N-[N-(3,5-Difluorophenylacetyl)-L-alaninyl]-L-alaninyl]-L-phenylglycine Methyl Ester]
156 to 158 °C	COC(=O)[C@H](Cc1ccccc1)NC(=O)[C@H](C)NC(=O)CC1CCCCC1 [Example 67, N-[N-(Cyclohexylacetyl)-L-alaninyl]-L-phenylalanine Methyl Ester]
204 to 205 °C	CCC[C@H](NC(=O)Cc1cc(F)cc(F)c1)C(=O)N[C@H](C(=O)OC)c1ccccc1 [Example 253, N-[N-(3,5-Difluorophenylacetyl)-L-norvalinyl]-L-phenylglycine Methyl Ester]
176.4 °C	COC(=O)[C@@H](NC(=O)[C@@H](NC(=O)Cc1cc(F)cc(F)c1)C(C)(C)C)c1ccccc1 [Example 254, N-[N-(3,5-Difluorophenylacetyl)-L-tert-leucinyl]-L-phenylglycine Methyl Ester]
260.3 to 264.3 °C	CC(C)C(NC(=O)Cc1cc(F)cc(F)c1)C(=O)NC(=O)C(N)c1ccccc1 (mixture of isomers) [Example 249, N-[N-(3,5-Difluorophenylacetyl)-D,L-valinyl]-D,L-phenylglycinamide]
197 to 199 °C	CCOC(=O)[C@H](C)NC(=O)[C@H](C)NC(=O)Cc1cc(F)cc(F)c1 [Example 85, N-[N-(3,5-Difluorophenylacetyl)-L-alaninyl]-L-alanine Ethyl Ester]
201.4 °C	O=C(CC1CCCC1)N[C@H](C(=O)N[C@H](CO)c1ccccc1)c1ccccc1 [Example 247, N-[N-(Cyclopentaneacetyl)-L-phenylglycinyl]-L-phenylglycinol]
137 to 139 °C	COC(=O)[C@H](Cc1ccccc1)NC(=O)[C@H](C)NC(=O)CC1CCCC1 [Example 68, N-[N-(Cyclopentylacetyl)-L-alaninyl]-L-phenylalanine Methyl Ester]
